Data: article PMC11508649 (International Journal of Molecular Sciences, 2024)
Where two headings read alike, the source gives them in different places. Marks after values point to notes of the source that are not given here.

Columns and labels:
human 5-HT6 receptor = target: T1, human 5-HT6 receptor (Homo sapiens, UniProt P50406); assay: 5-HT6 receptor binding ([3H]-LSD, HEK293 cells); details: cloned human receptor in HEK293, read-out: Ki ± SEM 5-HT6
T1 construct: expressed in transfected cells; host or cells: HEK293
T1 sequence (P50406 whole entry): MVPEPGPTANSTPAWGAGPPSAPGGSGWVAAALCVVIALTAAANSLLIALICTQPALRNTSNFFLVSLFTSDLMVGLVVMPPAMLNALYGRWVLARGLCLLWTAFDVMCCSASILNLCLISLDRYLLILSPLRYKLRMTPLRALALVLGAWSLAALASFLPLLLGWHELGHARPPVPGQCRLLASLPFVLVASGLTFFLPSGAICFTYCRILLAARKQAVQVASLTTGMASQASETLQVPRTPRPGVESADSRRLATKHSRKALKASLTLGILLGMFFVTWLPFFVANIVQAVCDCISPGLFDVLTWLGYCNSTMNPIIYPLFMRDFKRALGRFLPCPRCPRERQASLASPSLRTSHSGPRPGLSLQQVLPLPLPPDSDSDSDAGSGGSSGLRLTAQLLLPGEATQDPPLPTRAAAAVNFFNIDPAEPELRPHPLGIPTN
Description: (§1) Specifically, we assessed the displacement of [^3H]-raclopride, [^3H]-LSD, and [^3H]-5-CT from the cloned human D2L, 5-HT6, and 5-HT7 receptor, respectively, stably expressed in HEK293 cells, and [^3H]-ketanserin from the 5-HT2A receptor from the rat cortex.
(§2) For membrane preparation, cells were subcultured in 10 cm-diameter dishes, grown to 90% confluence, washed twice with prewarmed to 37 °C phosphate buffered saline (PBS) and pelleted by centrifugation (200 g) in PBS containing 0.1 mM EDTA and 1 mM dithiothreitol. Prior to membrane preparation, pellets were stored at −80 °C.
(§3) Cell pellets were thawed and homogenised in 20 volumes of assay buffer using an Ultra Turrax tissue homogeniser and centrifuged twice at […] for 20 min at 4 °C, with incubation for 15 min at 37 °C in between. The composition of the assay buffers was as follows: for 5-HT6R, 50 mM Tris-HCl, 0.5 mM EDTA and 4 mM MgCl2; and for 5-HT7bR, 50 mM Tris-HCl, 4 mM MgCl2, 10 μM pargyline and 0.1% ascorbate. All assays were incubated in a total volume of 200 μL in 96-well microtitre plates for 1 h at 37 °C. The process of equilibration was terminated by rapid filtration through Unifilter plates with a 96-well cell harvester, and radioactivity retained on the filters was quantified on a Microbeta plate reader. For displacement studies, the assay samples contained radioligands such as 2 nM [^3H]-LSD (85.2 Ci/mmol for 5-HT6R) or 0.6 nM [^3H]-5-CT (39.2 Ci/mmol) for 5-HT7R. Non-specific binding was defined using 10 μM methiothepine in the 5-HT6R or 5-HT7R binding experiments, respectively. Each compound was tested in triplicate at 7–8 concentrations (10^−11–10^−4 M). The inhibition constants (Ki) were calculated using the Cheng–Prusoff equation. Membrane preparation and general assay procedures for cloned receptors were adjusted to a 96-microwell format based on protocols previously described by us.

[1] = target: human norepinephrine transporter (Homo sapiens, UniProt P23975); assay: NET binding assay ([3H]-nisoxetine, MDCK membranes); details: for hNET screening procedure, displacement %: at 1 µM
Chain of human norepinephrine transporter (P23975 whole entry): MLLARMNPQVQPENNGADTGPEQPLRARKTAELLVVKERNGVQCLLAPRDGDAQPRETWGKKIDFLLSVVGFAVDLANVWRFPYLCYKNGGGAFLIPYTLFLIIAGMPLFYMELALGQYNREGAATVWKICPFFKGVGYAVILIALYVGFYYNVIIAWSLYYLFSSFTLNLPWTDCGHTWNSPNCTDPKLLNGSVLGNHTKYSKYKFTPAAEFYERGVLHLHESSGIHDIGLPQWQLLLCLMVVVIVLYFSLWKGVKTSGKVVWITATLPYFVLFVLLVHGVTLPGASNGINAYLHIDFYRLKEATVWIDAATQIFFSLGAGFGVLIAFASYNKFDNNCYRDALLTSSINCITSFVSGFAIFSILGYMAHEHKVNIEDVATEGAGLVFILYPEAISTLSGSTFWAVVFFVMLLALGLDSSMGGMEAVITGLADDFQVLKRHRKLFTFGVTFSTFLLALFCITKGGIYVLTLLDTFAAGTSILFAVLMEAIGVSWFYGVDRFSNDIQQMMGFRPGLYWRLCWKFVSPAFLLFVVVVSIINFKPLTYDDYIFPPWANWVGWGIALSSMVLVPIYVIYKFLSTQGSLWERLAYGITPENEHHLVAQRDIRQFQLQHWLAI
Description: We performed radioligand binding assays using membranes from CHO-K1 cells stably transfected with human DAT and membranes from MDCK cells stably transfected with human NET. This was accomplished by assessing the displacement of [^3H]-WIN35,428 and [^3H]-nisoxetine from cloned human DAT and NET, respectively.
(§6) Ten-micromolar stock solutions of tested compounds were prepared in DMSO. […] Each compound was tested in a screening assay at final concentrations of 10 µM and 1 µM. Results were expressed as percent inhibition of radioligand binding. Reference compounds were tested in 8 concentrations from 10^−5 to 10^−12 M (final concentration).
Radioligand binding was performed using membranes from MDCK cells stably transfected with the human norepinephrine transporter (PerkinElmer, Waltham, MA, USA). All assays were carried out in duplicates. Measures of 50 µL of working solution of the tested compounds, 50 µL of [^3H]-nisoxetine (final concentration 4 nM) and 150 µL of diluted membranes (3 µg protein per well) prepared in assay buffer (50 mM Tris-HCl, pH 7.4, 120 mM NaCl; 5 mM KCl) were transferred to a polypropylene 96-well microplate using the 96-well pipetting station Rainin Liquidator (MettlerToledo, Beverly, MA, USA). […] The microplate was covered with sealing tape, mixed and incubated for 60 min at 4 °C. The reaction was terminated by rapid filtration through GF/C filter mate pre-soaked with 0.5% polyethyleneimine for 30 min. Ten rapid washes with 200 µL of 50 mM Tris buffer (4 °C, pH 7.4) were performed using the automated harvester system Harvester-96 MACH III FM (Tomtec, Hamden, CT, USA). […] Radioactivity was counted using a MicroBeta2 scintillation counter (PerkinElmer, Turku, Finland). Data were fitted to a one-site curve-fitting equation with Prism 5 (GraphPad Software), and Ki values were estimated using the Cheng–Prusoff equation.

human D2 receptor = human D2 receptor (Homo sapiens, UniProt P14416); assay: D2 receptor binding assay; details: cloned human D2 receptor; read-out: Ki ± SEM D2
Chain of human D2 receptor (P14416 whole entry): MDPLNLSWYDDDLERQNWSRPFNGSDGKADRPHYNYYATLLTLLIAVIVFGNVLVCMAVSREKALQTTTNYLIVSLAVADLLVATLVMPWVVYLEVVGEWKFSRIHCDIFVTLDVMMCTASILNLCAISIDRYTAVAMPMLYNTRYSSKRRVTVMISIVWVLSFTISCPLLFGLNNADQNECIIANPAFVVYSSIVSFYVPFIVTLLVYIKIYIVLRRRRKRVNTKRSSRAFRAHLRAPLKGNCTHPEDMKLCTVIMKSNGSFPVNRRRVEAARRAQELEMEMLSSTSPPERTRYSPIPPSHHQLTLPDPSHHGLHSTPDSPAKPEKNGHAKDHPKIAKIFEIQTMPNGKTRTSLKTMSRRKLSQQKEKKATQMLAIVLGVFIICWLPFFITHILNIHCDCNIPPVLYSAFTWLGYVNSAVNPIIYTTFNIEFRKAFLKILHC
Description: as §1
(§4) Each compound was tested in 6 concentrations from 10–5 to 10–10 M (final concentration).
(§5) All assays were carried out in duplicates.

α1-adrenoceptor = assay: ADRA1 receptor binding assay ([3H]-prazosin, rat cortex); details: read-out: Ki ± SEM α1
5-HT2A receptor = target: T2, 5-HT2A receptor (Rattus norvegicus, UniProt P14842); assay: 5-HT2A binding assay ([3H]-ketanserin, rat cortex); details: read-out: Ki ± SEM 5-HT2A
T2 construct: and for the native 5-HT2A receptor; from tissue; host or cells: rat cortex
T2 sequence (P14842 whole entry): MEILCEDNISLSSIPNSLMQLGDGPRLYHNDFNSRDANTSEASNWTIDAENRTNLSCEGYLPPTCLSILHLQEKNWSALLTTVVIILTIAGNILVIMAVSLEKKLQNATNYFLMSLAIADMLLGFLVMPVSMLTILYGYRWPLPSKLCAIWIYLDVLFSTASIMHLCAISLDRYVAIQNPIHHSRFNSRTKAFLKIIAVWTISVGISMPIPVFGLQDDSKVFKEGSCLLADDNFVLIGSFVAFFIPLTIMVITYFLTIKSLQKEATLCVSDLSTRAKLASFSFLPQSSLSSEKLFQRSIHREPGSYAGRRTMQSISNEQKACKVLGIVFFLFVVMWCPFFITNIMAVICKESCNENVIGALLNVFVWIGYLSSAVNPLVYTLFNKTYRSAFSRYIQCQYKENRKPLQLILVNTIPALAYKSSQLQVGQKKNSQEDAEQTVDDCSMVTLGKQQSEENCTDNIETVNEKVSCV
Description: as §1
Tissue preparations (rat cortex) and competition binding experiments for 5-HT2A receptors were carried out according to a previously described, standard technique using 0.5 nM of [^3H]-ketanserin as the radioligand and 10 μM of methysergide to determine non-specific binding. Following 20 min of incubation, the samples containing receptor homogenates and the investigated compounds (7–9 concentrations run in triplicate) were rapidly filtered under vacuum through GF/B glass fibre filters; the filters were washed extensively with an ice-cold buffer using a Brandel harvester. Bound radioactivity was measured by scintillation counting using a liquid scintillation cocktail. The inhibition constants (Ki) were calculated using the Cheng–Prusoff equation. Results are expressed as the means of at least three separate experiments.

human 5-HT7b receptor = target: T3, human 5-HT7b receptor (Homo sapiens, UniProt P34969); assay: 5-HT7 receptor binding ([3H]-5-CT, HEK293 cells); details: cloned human receptor in HEK293, read-out: Ki ± SEM 5-TH7
T3 construct: expressed in transfected cells; host or cells: HEK293
T3 sequence (P34969 1-432 limits assumed): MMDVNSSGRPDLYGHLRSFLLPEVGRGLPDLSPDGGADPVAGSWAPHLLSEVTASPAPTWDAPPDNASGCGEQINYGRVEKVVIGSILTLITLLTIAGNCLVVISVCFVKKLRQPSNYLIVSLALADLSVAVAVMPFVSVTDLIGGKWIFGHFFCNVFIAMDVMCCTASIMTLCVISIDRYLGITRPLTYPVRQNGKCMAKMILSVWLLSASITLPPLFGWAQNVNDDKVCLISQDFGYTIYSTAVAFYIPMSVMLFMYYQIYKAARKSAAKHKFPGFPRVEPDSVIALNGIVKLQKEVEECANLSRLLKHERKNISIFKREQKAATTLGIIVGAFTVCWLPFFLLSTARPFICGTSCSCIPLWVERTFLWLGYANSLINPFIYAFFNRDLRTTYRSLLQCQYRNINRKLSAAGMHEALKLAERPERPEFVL
Description: as §1, §2, §3

[2] = target: T4, human serotonin transporter (Homo sapiens, UniProt P31645); assay: Serotonin transporter radioligand binding ([3H]-imipramine, HEK-293 membranes)
T4 construct: purchased PerkinElmer; host or cells: HEK-293
T4 sequence (P31645 whole entry): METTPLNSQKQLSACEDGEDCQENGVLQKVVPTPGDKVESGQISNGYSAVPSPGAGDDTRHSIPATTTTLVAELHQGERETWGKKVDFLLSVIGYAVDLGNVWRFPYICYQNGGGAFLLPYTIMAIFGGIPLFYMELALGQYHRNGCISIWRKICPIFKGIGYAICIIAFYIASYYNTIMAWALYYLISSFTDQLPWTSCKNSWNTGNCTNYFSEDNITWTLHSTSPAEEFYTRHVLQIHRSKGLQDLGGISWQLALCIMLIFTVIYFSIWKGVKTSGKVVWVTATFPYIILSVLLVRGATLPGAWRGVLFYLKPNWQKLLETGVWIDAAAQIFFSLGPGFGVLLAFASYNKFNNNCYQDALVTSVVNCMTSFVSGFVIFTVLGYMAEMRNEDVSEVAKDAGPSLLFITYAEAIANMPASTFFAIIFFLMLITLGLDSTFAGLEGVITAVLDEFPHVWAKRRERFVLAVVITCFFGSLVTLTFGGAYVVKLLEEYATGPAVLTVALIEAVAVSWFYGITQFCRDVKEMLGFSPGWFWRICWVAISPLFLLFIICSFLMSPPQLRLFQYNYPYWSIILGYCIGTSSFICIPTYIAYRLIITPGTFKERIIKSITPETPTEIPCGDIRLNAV
Description: as §4, §5

human 5-HT1A receptor [3] = target: T5, human 5-HT1A receptor (Homo sapiens, UniProt P08908); assay: 5-HT1A receptor radioligand binding ([3H]-8-OH-DPAT, CHO-K1 membranes); details: displacement of [3H]-8-OH-DPAT, mean ± SEM of three experiments, NC = not converged
T5 construct: purchased PerkinElmer; host or cells: CHO-K1
T5 sequence (P08908 1-422): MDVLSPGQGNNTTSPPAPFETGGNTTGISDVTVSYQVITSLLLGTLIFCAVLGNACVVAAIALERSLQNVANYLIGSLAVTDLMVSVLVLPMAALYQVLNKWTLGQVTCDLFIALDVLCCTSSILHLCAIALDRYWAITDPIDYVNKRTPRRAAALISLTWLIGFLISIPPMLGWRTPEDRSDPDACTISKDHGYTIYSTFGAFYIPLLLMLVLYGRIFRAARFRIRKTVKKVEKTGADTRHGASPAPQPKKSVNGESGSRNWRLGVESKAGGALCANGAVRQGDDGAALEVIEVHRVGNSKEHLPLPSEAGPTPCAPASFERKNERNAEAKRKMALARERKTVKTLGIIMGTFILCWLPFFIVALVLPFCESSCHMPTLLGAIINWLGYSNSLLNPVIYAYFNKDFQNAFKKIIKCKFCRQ
Description: as §4, §5

[4] = target: T4, human serotonin transporter; details: previously described 1H-indole analogues; read-out: Ki ± SEM SERT; cited from earlier work
human 5-HT1A receptor [5] = target: T5, human 5-HT1A receptor; details: previously described 1H-indole analogues; read-out: Ki ± SEM 5-HT1A; cited from earlier work
[6] = target: human dopamine transporter (Homo sapiens, UniProt Q01959); assay: DAT binding assay ([3H]-WIN 35,428, CHO-K1 membranes); details: for Selectivity Ratio hDAT/hSERT: ratio of Ki values
Chain of human dopamine transporter (Q01959 whole entry): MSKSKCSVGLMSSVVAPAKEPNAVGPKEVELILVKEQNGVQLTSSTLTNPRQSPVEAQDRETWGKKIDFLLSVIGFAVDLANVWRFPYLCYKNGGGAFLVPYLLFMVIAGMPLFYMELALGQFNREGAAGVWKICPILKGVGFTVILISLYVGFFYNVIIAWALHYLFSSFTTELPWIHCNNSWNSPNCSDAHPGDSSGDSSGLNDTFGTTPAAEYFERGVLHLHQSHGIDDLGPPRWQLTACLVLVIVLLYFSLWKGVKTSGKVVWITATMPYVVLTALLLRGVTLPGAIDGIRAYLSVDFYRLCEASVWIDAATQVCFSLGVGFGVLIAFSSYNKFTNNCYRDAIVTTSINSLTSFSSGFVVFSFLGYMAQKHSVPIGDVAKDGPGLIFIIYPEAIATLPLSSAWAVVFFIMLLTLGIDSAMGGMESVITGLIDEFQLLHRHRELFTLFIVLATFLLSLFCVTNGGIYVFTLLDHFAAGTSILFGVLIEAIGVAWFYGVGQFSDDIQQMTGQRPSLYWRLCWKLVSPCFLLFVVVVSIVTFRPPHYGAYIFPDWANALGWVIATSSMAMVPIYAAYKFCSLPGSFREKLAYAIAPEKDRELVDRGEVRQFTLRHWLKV
Description: as §6
Radioligand binding was performed using membranes from CHO-K1 cells stably transfected with the human dopamine transporter (PerkinElmer, Waltham, MA, USA). All assays were carried out in duplicates. […] The microplate was covered with sealing tape, mixed and incubated for 120 min at 4 °C. The reaction was terminated by rapid filtration through GF/C filter mate pre-soaked with 0.5% polyethyleneimine for 30 min. Ten rapid washes with 200 µL of 50 mM Tris buffer (4 °C, pH 7.4) were performed using the automated harvester system Harvester-96 MACH III FM (Tomtec, Hamden, CT, USA). […] Radioactivity was counted using a MicroBeta2 scintillation counter (PerkinElmer, Turku, Finland). Data were fitted to a one-site curve-fitting equation with Prism 5 (GraphPad Software), and Ki values were estimated using the Cheng–Prusoff equation.

[7] = displacement of [3H]-imipramine, HEK-293 membranes, mean ± SEM of three experiments, read-out: Ki ± SEM SERT

O=C1CC(c2c[nH]c3ccccc23)C(=O)N1CCCCN1CC=C(c2c[nH]c3ncccc23)CC1 (stereo not drawn) [Compound 4, 1-(4-(4-(1H-Pyrrolo[2,3-b]pyridin-3-yl)-3,6-dihydropyridin-1(2H)-yl)butyl)-3-(1H-indol-3-yl)pyrrolidine-2,5-dione]
Ki (human 5-HT6 receptor): 1690 ± 186 nM | Ki [1]: 167 ± 13.8 nM | Selectivity Ratio hNET/hSERT ([1]; ratio of Ki values): 3.5 | Ki (human D2 receptor): 78 ± 7 nM | Ki (α1-adrenoceptor): 87 ± 2 nM | Ki (5-HT2A receptor): 1400 ± 71 nM | Ki (human 5-HT7b receptor): 1420 ± 172 nM | Ki [2, 7]: 47 ± 5 nM | Ki (human 5-HT1A receptor [3]): 660 ± 60.2 nM

O=C1CC(c2c[nH]c3ccccc23)C(=O)N1CCCCN1CC=C(c2c[nH]c3ccccc23)CC1 (stereo not drawn) [Compound 13]
Ki [4]: 11.3 ± 0.6 nM | Ki (human 5-HT1A receptor [5]): 12.5 ± 1.7 nM

O=C1CC(c2c[nH]c3ccccc23)C(=O)N1CCCN1CC=C(c2c[nH]c3ncccc23)CC1 (stereo not drawn) [Compound 5, 1-(3-(4-(1H-Pyrrolo[2,3-b]pyridin-3-yl)-3,6-dihydropyridin-1(2H)-yl)propyl)-3-(1H-indol-3-yl)pyrrolidine-2,5-dione]
Ki [2]: 57.1 ± 3.2 nM | Ki (human 5-HT1A receptor [3]): 2450 ± 24 nM

O=C1CC(c2c[nH]c3ccc(F)cc23)C(=O)N1CCCN1CC=C(c2c[nH]c3ncccc23)CC1 (stereo not drawn) [Compound 11, 1-(3-(4-(1H-Pyrrolo[2,3-b]pyridin-3-yl)-3,6-dihydropyridin-1(2H)-yl)propyl)-3-(5-fluoro-1H-indol-3-yl)pyrrolidine-2,5-dione]
Ki (human 5-HT6 receptor): 1290 ± 147 nM | Ki [6]: 288 ± 25.2 nM | Selectivity Ratio hDAT/hSERT [6]: 31.3 | Ki (human D2 receptor): 51 ± 6 nM | Ki (5-HT2A receptor): 1160 ± 96 nM | Ki (human 5-HT7b receptor): 1130 ± 89 nM | Ki [2, 7]: 9.2 ± 0.6 nM | Ki (human 5-HT1A receptor [3]): 128 nM

Cc1ccc(N(CC2=NCCN2)c2cccc(O)c2)cc1 [phentolamine, reference compound]
Ki (α1-adrenoceptor): 11 ± 0.7 nM

COc1ccc2[nH]cc(C3CC(=O)N(CCCCN4CC=C(c5c[nH]c6ccccc56)CC4)C3=O)c2c1 (stereo not drawn) [Compound 16]
Ki [4]: 2.6 ± 0.3 nM | Ki (human 5-HT1A receptor [5]): 30.4 ± 1.8 nM

COc1ccc2[nH]cc(C3CC(=O)N(CCCN4CC=C(c5c[nH]c6ccccc56)CC4)C3=O)c2c1 (stereo not drawn) [Compound 17]
Ki [4]: 782 ± 54 nM | Ki (human 5-HT1A receptor [5]): 221 ± 11.5 nM

O=C1CC(c2c[nH]c3ccc(F)cc23)C(=O)N1CCCCN1CC=C(c2c[nH]c3ccccc23)CC1 (stereo not drawn) [Compound 19]
Ki [4]: 33.3 ± 2.9 nM | Ki (human 5-HT1A receptor [5]): 48.2 ± 2.9 nM

O=C1CC(c2c[nH]c3ccc(F)cc23)C(=O)N1CCCN1CC=C(c2c[nH]c3ccccc23)CC1 (stereo not drawn) [Compound 20]
Ki (human 5-HT6 receptor): 257 ± 17 nM | Ki [4]: 1.5 ± 0.2 nM | Ki (human D2 receptor): 56 ± 7 nM | Ki (5-HT2A receptor): 237 ± 17 nM | Ki (human 5-HT7b receptor): 30 ± 4 nM | Ki (human 5-HT1A receptor [5]): 190 ± 8.5 nM

O=C1CC(c2c[nH]c3ccccc23)C(=O)N1CCN1CC=C(c2c[nH]c3ccccc23)CC1 (stereo not drawn) [Compound 15]
Ki [4]: 33.8 ± 3.2 nM | Ki (human 5-HT1A receptor [5]): 250 ± 6.8 nM

O=C1CC(c2c[nH]c3ccc(F)cc23)C(=O)N1CCN1CC=C(c2c[nH]c3ncccc23)CC1 (stereo not drawn) [Compound 12, 1-(2-(4-(1H-Pyrrolo[2,3-b]pyridin-3-yl)-3,6-dihydropyridin-1(2H)-yl)ethyl)-3-(5-fluoro-1H-indol-3-yl)pyrrolidine-2,5-dione]
hNET screening procedure, displacement % [1]: 42% ^a | Ki [6]: 229 ± 21.4 nM | Selectivity Ratio hDAT/hSERT [6]: 0.9 | Ki (α1-adrenoceptor): 456 ± 6 nM | Ki [2, 7]: 252 ± 24 nM

O=C1CC(c2c[nH]c3ccc(F)cc23)C(=O)N1CCCCN1CC=C(c2c[nH]c3ncccc23)CC1 (stereo not drawn) [Compound 10, 1-(4-(4-(1H-Pyrrolo[2,3-b]pyridin-3-yl)-3,6-dihydropyridin-1(2H)-yl)butyl)-3-(5-fluoro-1H-indol-3-yl)pyrrolidine-2,5-dione]
Ki [2, 7]: 77.6 ± 2.5 nM | Ki (human 5-HT1A receptor [3]): 128 ± 12 nM

COc1ccc2[nH]cc(C3CC(=O)N(CCCN4CC=C(c5c[nH]c6ncccc56)CC4)C3=O)c2c1 (stereo not drawn) [Compound 8, 1-(3-(4-(1H-Pyrrolo[2,3-b]pyridin-3-yl)-3,6-dihydropyridin-1(2H)-yl)propyl)-3-(5-methoxy-1H-indol-3-yl)pyrrolidine-2,5-dione]
Ki (human 5-HT6 receptor): 2970 ± 138 nM | hNET screening procedure, displacement % [1]: 43% ^a | Ki [6]: 663 ± 15 nM | Ki (α1-adrenoceptor): 265 ± 6.5 nM | Ki (5-HT2A receptor): 727 ± 43 nM | Ki (human 5-HT7b receptor): 1530 ± 76 nM | Ki [2, 7]: 23 ± 2.8 nM

COc1ccc2[nH]cc(C3CC(=O)N(CCN4CC=C(c5c[nH]c6ncccc56)CC4)C3=O)c2c1 (stereo not drawn) [Compound 9, 1-(2-(4-(1H-Pyrrolo[2,3-b]pyridin-3-yl)-3,6-dihydropyridin-1(2H)-yl)ethyl)-3-(5-methoxy-1H-indol-3-yl)pyrrolidine-2,5-dione]
hNET screening procedure, displacement % [1]: 41% ^a | Ki [6]: 335 ± 14.8 nM | Selectivity Ratio hDAT/hSERT [6]: 3.6 | Ki (α1-adrenoceptor): 319 ± 10.2 nM | Ki [2, 7]: 92 ± 8 nM

O=C1CC(c2c[nH]c3ccccc23)C(=O)N1CCN1CC=C(c2c[nH]c3ncccc23)CC1 (stereo not drawn) [Compound 6, 1-(2-(4-(1H-Pyrrolo[2,3-b]pyridin-3-yl)-3,6-dihydropyridin-1(2H)-yl)ethyl)-3-(1H-indol-3-yl)pyrrolidine-2,5-dione]
hNET screening procedure, displacement % [1]: 37% ^a | Ki [6]: 916 ± 40.5 nM | Selectivity Ratio hDAT/hSERT [6]: 3.7 | Ki (α1-adrenoceptor): 367 ± 55.2 nM | Ki [2, 7]: 245 ± 18 nM

COc1ccc2[nH]cc(C3CC(=O)N(CCCCN4CC=C(c5c[nH]c6ncccc56)CC4)C3=O)c2c1 (stereo not drawn) [Compound 7, 1-(4-(4-(1H-Pyrrolo[2,3-b]pyridin-3-yl)-3,6-dihydropyridin-1(2H)-yl)butyl)-3-(5-methoxy-1H-indol-3-yl)pyrrolidine-2,5-dione]
Ki [2, 7]: 58.4 ± 4 nM | Ki (human 5-HT1A receptor [3]): 824 ± 23.2 nM

COc1ccc2[nH]cc(C3CC(=O)N(CCN4CC=C(c5c[nH]c6ccccc56)CC4)C3=O)c2c1 (stereo not drawn) [Compound 18]
Ki [4]: 14.7 ± 1.5 nM | Ki (human 5-HT1A receptor [5]): 348 ± 12.1 nM

O=C1CC(c2c[nH]c3ccccc23)C(=O)N1CCCN1CC=C(c2c[nH]c3ccccc23)CC1 (stereo not drawn) [Compound 14]
Ki [4]: 4 ± 0.1 nM | Ki (human 5-HT1A receptor [5]): 161 ± 17.5 nM
